Patent publication US20090227556A1, “RECEPTOR TYROSINE KINASE INHIBITORS COMPRISING PYRIDINE AND PYRIMIDINE DERIVATIVES” (Eisai R&D Management Co., Ltd., priority 2008, published 2009)

Key:
[1] = test system: Human umbilical vein endothelial cells (HUVECs); assay: Growth inhibitory activity on human umbilical vein endothelial cells stimulated by VEGF; format: cell-based; conditions: HUVEC, 72 h, 3 days, Cell Counting Kit-8
Procedure: Human umbilical vein endothelial cells (HUVECs) were isolated according to the reported method (Shin-seikagaku jikken kouza “saibou baiyou gijutu (Cell culturing techniques)” p. 197-202) and incubated to confluence using an EGM-2 culture medium (obtained from Sanko Junyaku Co., Ltd.) in a 5% CO2 incubator (37° C.). The HUVECs were collected by a trypsin-EDTA treatment and washed with a culture medium (2% fetal bovine serum-supplemented Human endothelial SFM basal medium, obtained from Invitrogen Corp.), followed by suspending them in the medium to count the cell number. By diluting it with the medium, a 2×10^4 cells/ml cell suspension was prepared. The cell suspension was dispensed into a 96-well plate (obtained from FALCON) by 100 μl each, and incubated at 37° C. in a 5% CO2 incubator overnight. After the incubation, 50 μl of the test substance diluted with the medium was added to each well, and 50 μL of 80 ng/ml human recombinant VEGF (obtained from R&D systems, Inc.) diluted with the medium was added and further incubated for 3 days in the 5% CO2 incubator (37° C.). After the incubation, 20 μl of Cell Counting Kit-8 (obtained from DOJINDO Laboratories) was added to each well, which were incubated for about 2 hours in the 5% CO2 incubator (37° C.). After the incubation, the absorbance of the each well was measured using a plate reader MTP-500 (Corona Electric Co., Ltd) with a measurement wavelength of 450 nm and a control wavelength of 660 nm. A ratio of absorbance (%) of each well with the test substance against the wells without the test substance was determined, and based on this ratio, the concentration of the test substance required to inhibit 50% of cell proliferation (IC50) was determined and the results are shown in Table 2.

KIT = biological target: T1, KIT (Homo sapiens, UniProt P10721); assay: Inhibitory action on KIT (ELISA); format: biochemical; conditions: recombinant human kinase
T1 construct: purchased Carna Biosciences Inc. 08-156
T1 sequence (P10721 26-976): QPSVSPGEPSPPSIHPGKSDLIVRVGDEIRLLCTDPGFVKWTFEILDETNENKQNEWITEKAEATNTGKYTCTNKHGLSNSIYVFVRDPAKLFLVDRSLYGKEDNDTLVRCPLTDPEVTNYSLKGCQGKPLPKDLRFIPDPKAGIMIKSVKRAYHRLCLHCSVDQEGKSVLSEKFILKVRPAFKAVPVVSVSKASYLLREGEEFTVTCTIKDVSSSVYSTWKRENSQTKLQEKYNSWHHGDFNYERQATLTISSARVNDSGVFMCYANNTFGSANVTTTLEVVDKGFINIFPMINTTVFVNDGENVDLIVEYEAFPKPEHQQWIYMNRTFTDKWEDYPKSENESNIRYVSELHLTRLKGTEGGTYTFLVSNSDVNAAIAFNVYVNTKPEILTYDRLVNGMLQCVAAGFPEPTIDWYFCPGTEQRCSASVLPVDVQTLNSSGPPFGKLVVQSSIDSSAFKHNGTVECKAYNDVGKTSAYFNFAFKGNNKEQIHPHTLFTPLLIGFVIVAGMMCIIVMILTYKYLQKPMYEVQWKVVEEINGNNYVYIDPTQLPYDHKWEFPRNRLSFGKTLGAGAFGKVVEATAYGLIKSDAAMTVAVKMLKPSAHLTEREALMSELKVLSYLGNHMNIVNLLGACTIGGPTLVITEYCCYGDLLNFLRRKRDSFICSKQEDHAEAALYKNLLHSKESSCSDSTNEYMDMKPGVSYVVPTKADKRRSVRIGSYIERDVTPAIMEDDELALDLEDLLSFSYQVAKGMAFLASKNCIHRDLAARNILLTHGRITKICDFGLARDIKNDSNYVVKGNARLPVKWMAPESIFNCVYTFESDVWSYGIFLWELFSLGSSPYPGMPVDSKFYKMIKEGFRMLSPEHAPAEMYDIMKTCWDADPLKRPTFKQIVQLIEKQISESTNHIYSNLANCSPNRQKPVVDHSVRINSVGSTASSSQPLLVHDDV
Procedure: A test compound was dissolved in dimethyl sulfoxide to make a 10 mM solution, which was stored in a dark place at 4° C. until use.
Protein tyrosine kinases (recombinant human kinases) used in the study were the following products from Carna Biosciences Inc. (Kobe, Japan).
VEGFR-1 (FLT 1) (product number: 08-189) VEGFR-3 (FLT 4) (product number: 08-190) RON (product number: 08-152) RET (product number: 08-159) KIT (product number: 08-156)
Kinase activity was measured in a mobility shift assay (MSA) method (J. Biomolecular Screening, 11, 359-368, 2006) using QuickScout Screening Assist™ (Carna Biosciences Inc., commercial kit), and enzyme-linked immunoassay (ELISA).
10 μl of the test substance solution obtained by dissolving or suspending in the assay buffer (15 mM Tris, 0.01% Tween 20, 2 mM DTT, pH 7.5) (4× final concentration), or 10 μl of a solvent (4% dimethyl sulfoxide-assay buffer) was dispensed into a DELFIA Streptavidin-coated clear plate (PerkinElmer Inc., product number 4009-0010). Then, 10 μl of an ATP/substrate/metal solution of QuickScout Screening Assist™ ELISA was added. Additionally, 20 μl of the kinase solution diluted with the assay buffer was added to initiate a reaction. For a blank, only 20 μl of the assay buffer was added. The assay method was in accordance with the protocol of QuickScout Screening Assist™ ELISA. After the reaction, the absorbance at 450 nm in each well was measured using SpectraMax (Molecular Devices, California, U.S.A).

Compound | IC50 (KIT) [nM] | IC50 [1] [nM]
O=C(Nc1cc(Oc2ccc(NC(=O)C3(C(=O)Nc4ccc(F)cc4)CC3)c(F)c2)ccn1)N1CCC1 [N-[4-({2-[(Azetidin-1-ylcarbonyl)amino]pyridin-4-yl}oxy)-2-fluorophenyl]-N′-(4-fluorophenyl)cyclopropane-1,1-dicarboxamide] | 380 | 38
O=C(Nc1cc(Oc2cc(F)c(NC(=O)C3(C(=O)Nc4ccc(F)cc4)CC3)cc2F)ccn1)N1CC(O)C1 [N-{2,5-Difluoro-4-[(2-{[(3-hydroxyazetidin-1-yl)carbonyl]amino}pyridin-4-yl)oxy]phenyl}-N′-(4-fluorophenyl)cyclopropane-1,1-dicarboxamide] | 370 | 15
CN1CCC(N(C)C(=O)Nc2cc(Oc3cc(F)c(NC(=O)C4(C(=O)Nc5ccc(F)cc5)CC4)cc3F)ccn2)CC1 [N-(2,5-Difluoro-4-{[2-({[methyl(1-methylpiperidin-4-yl)amino]carbonyl}amino)pyridin-4-yl]oxy}phenyl)-N′-(4-fluorophenyl)cyclopropane-1,1-dicarboxamide] | 560 | 21

Now those with a lower IC50 (KIT), led by results:

IC50 (KIT) [nM] | Compound | IC50 [1] [nM]
350 | CN1CCN(C2CCN(C(=O)Nc3cc(Oc4cc(F)c(NC(=O)C5(C(=O)Nc6ccc(F)cc6)CC5)cc4F)ccn3)CC2)CC1 [N-(2,5-Difluoro-4-{[2-({[4-(4-methylpiperazin-1-yl)piperidin-1-yl]carbonyl}amino)pyridin-4-yl]oxy}phenyl)-N′-(4-fluorophenyl)cyclopropane-1,1-dicarboxamide] | 20
140 | O=C(Nc1cc(Oc2cc(F)c(NC(=O)C3(C(=O)Nc4ccc(F)cc4)CC3)cc2F)ccn1)N1CC(CO)C1 [N-(2,5-Difluoro-4-{[2-({[3-(hydroxymethyl)azetidin-1-yl]carbonyl}amino)pyridin-4-yl]oxy}phenyl)-N′-(4-fluorophenyl)cyclopropane-1,1-dicarboxamide] | 5.5
